Molecular target: T1, human factor Xa (Homo sapiens, UniProt P00742)
T1 construct: Factor Xa is a serine endopeptidase composed of two disulfide-linked subunits; purchased Enzyme Research Laboratories
Experiment: chromogenic peptide substrate assay, inhibition of factor Xa
Format: biochemical
Settings: human factor Xa 3 nM, chromogenic substrate S-2222, pH 7.8, room temperature; apparent Ki from IC50 by Cheng-Prusoff
Protocol: Factor Xa activity was measured spectrophotometrically in microtiter plates in a final volume of 150 μl using the following conditions: Inhibition of human factor Xa (Enzyme Research Laboratories) was tested at an enzyme concentration of 3 nM using the chromogenic substrate S-2222 (Chromogenix AB, Mölndal, Sweden) at […]. The reaction kinetics of the enzyme and the substrate were linear with both time and the enzyme concentration. The inhibitors were dissolved in DMSO and tested at various concentrations up to 100 μM. The inhibitors were diluted using HNPT buffer consisting of HEPES 100 mM, NaCl 140 mM, PEG 6000 0.1% and Tween 80 0.02%, pH 7.8. […] The velocity of the reaction was determined by the autoreader from the slope of the linear regression fit to 7 time points (1 minute). The initial velocity for each inhibitor concentration was determined by the slope of at least 4 time points in the linear phase by a linear regression fit […]. Apparent dissociation constants Ki were calculated according to Cheng and Prusoff [Cheng, Y. C.; Prusoff, W. H. Relationship between the inhibition constant (Ki) and the concentration of the inhibitor that causes 50 percent inhibition (IC50) of an enzyme reaction. Biochem. Pharmacol. 1973, 22, 3099-3108.] based on the IC50 and the respective Km, determined previously (Ki=IC50/(1+S/Km)). […]

T1 sequence (P00742 235-488 limits assumed): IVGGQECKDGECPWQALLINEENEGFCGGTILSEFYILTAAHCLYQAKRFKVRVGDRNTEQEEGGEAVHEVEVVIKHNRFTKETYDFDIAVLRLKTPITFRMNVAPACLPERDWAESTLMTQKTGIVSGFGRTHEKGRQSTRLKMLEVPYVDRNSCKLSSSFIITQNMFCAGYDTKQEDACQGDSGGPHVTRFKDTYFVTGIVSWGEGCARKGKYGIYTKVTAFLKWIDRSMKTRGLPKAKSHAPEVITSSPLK
T1 sequence (P00742 41-179 partner limits assumed): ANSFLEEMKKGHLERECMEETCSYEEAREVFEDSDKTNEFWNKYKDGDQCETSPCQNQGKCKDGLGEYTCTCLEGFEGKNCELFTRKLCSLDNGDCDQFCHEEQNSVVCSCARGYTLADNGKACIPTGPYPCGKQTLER

Compound: O=C(Nc1ccc(-n2ccccc2=O)cc1F)[C@H]1C[C@H]1C(=O)Nc1ccc(Cl)cn1 (single isomer, unassigned) [Example 1.4 (1S,2R) enantiomer]
- Ki: 0.003 µM

From patent US20110195997A1, “Dicarboxamide Derivatives” (priority 2006, published 2011)
